These results are taken from patent US20240382520A1, “COMPOSITION FOR PREVENTING AND TREATING CANCER THROUGH MITOCHONDRIAL METABOLISM REGULATION CONTAINING NANOGRAPHENE STRUCTURE” (SEOUL NATIONAL UNIVERSITY R & DB FOUNDATION, priority 2021, published 2024).

For the assay, the system named is colon cancer. The assay can be described thus: Oral administration in colon cancer model induced with Azoxymethane and Dextran sodium sulfate (DSS). In kind it is in vivo, mouse. As to the method:
It was determined whether orally administering the nanographene structure or a modified structure thereof has an effect on cancer occurrence and the mitigation of progression in vivo. Specifically, according to Table 1, rats that were not induced with colon cancer (sham group) and rats that were induced with colon cancer and administered with nanographene oxide (danGO group) were used, and rats that were induced with colon cancer were used as a negative control group (vehicle group), and as a positive control group, rats that were administered with 5-fluorouracil (5-FU), which is an anticancer drug, were prepared. In the negative control group, colon cancer was induced by using Azoxymethane and Dextran sodium sulfate (DSS). In the danGO group which was the experimental group, danGO was orally administered at a dose of 250 μg/mouse 5 times every 3 days to rats that were induced with colon cancer.
In the same manner as in Example 7-1, the effect of modified nanographene oxide, NGO-NH2, on in vivo cancer occurrence and progression mitigation was confirmed.
Next, the spleen was separated and the size and weight were measured in order to determine the effect on the degree of systemic inflammation. The spleen is an important lymphoid organ, accounting for about 25% of the body weight of the lymphatic organ. […]

`O=c1[nH]cc(F)c(=O)[nH]1` [5-FU, 5-fluorouracil]: the “length of the colon compared to the vehicle group” value (Example 7-1, oral, danGO 250 μg/mouse 5 times every 3 days) was “preserved statistically significantly”. The “alleviation of disease (colon length and diameter) compared to the vehicle group” value (Example 7-2) is reported as “significantly alleviated”.
